The values that follow come from ChEMBL document CHEMBL3045548, “Synthesis of some novel 1,2,4-triazole and 1,3,4-oxadiazole derivatives of biological interest” (2013).

Converted amounts (≈) assume the structure as drawn.

Type in all cases: functional
One experiment has as its system Staphylococcus aureus. Briefly: Antimicrobial activity against Staphylococcus aureus NICM 2079 assessed as growth inhibition by two fold serial dilution method.
Another experiment has as its system Escherichia coli. Description: Antimicrobial activity against Escherichia coli NICM 2138 assessed as growth inhibition by two-fold serial dilution method.
For another experiment, the system named is Pseudomonas aeruginosa. Briefly: Antimicrobial activity against Pseudomonas aeruginosa NICM 2036 assessed as growth inhibition by two-fold serial dilution method.
A further experiment concerns Saccharomyces cerevisiae. Briefly: Antimicrobial activity against Saccharomyces cerevisiae NICM 3312 assessed as growth inhibition by two fold serial dilution method.
A further experiment deals with Bacillus subtilis. Description: Antimicrobial activity against Bacillus subtilis NICM 2063 assessed as growth inhibition by two fold serial dilution method.
The subject of experiment [1] is Staphylococcus epidermidis. Description: Antimicrobial activity against Staphylococcus epidermidis NICM 2493 assessed as growth inhibition by two fold serial dilution method.
For another experiment, the system named is Aspergillus flavus. Description: Antimicrobial activity against Aspergillus flavus NICM 524 assessed as growth inhibition by two fold serial dilution method.
Another experiment concerns Rhizopus arrhizus. Description: Antimicrobial activity against Rhizopus oryzae NICM 997 assessed as growth inhibition by two-fold serial dilution method.
The test system of a further experiment is Aspergillus niger. Briefly: Antimicrobial activity against Aspergillus niger NICM 572 assessed as growth inhibition by two fold serial dilution method.
For a further experiment, the system named is Candida albicans. Briefly: Antimicrobial activity against Candida albicans NICM 3100 assessed as growth inhibition by two-fold serial dilution method.

What is called MIC is the smallest concentration in the dilution series that meets the test's criterion for growth inhibition. Turning to `Cc1nn(-c2ccc(-c3nnc(S)o3)cc2)c(=O)n1/N=C/c1cccc(F)c1`, the MIC with Staphylococcus aureus stood at 9.37 µg/mL (≈ 23.6 µM); in the experiment with Escherichia coli it was 9.37 µg/mL (≈ 23.6 µM); in the experiment on Pseudomonas aeruginosa, 75 µg/mL (≈ 189 µM); in the experiment on Saccharomyces cerevisiae it was 75 µg/mL (≈ 189 µM); with Bacillus subtilis, 18.8 µg/mL (≈ 47.3 µM); in [1] it was 37.5 µg/mL (≈ 94.6 µM). Besides, the MIC in the experiment on Aspergillus flavus, with Rhizopus arrhizus, in the experiment with Aspergillus niger and in the experiment on Candida albicans was 150 µg/mL (≈ 378 µM) each time.
On to `Cc1nn(-c2ccc(-c3nnc(S)n3N)cc2)c(=O)n1N`, for which the MIC with Staphylococcus aureus amounted to 9.37 µg/mL (≈ 30.8 µM); in the experiment with Escherichia coli, 37.5 µg/mL (≈ 123 µM); with Pseudomonas aeruginosa it was 18.8 µg/mL (≈ 61.6 µM); in the experiment on Saccharomyces cerevisiae, 150 µg/mL (≈ 493 µM); in the experiment with Bacillus subtilis it was 18.8 µg/mL (≈ 61.6 µM); in experiment [1], 75 µg/mL (≈ 246 µM). Moreover, the MIC is 75 µg/mL (≈ 246 µM) in the experiment on Aspergillus flavus, 18.8 µg/mL (≈ 61.6 µM) in the experiment on Rhizopus arrhizus, 37.5 µg/mL (≈ 123 µM) in the experiment with Aspergillus niger and 150 µg/mL (≈ 493 µM) with Candida albicans.
Consider `CN[C@@H]1[C@H](O[C@H]2[C@H](O[C@H]3[C@H](O)[C@@H](O)[C@H](N=C(N)N)[C@@H](O)[C@@H]3N=C(N)N)O[C@@H](C)[C@]2(O)C=O)O[C@@H](CO)[C@H](O)[C@H]1O` [STREPTOMYCIN], for which the MIC is 1.56 µg/mL (≈ 2.68 µM) in the experiment on Staphylococcus aureus; 3.12 µg/mL (≈ 5.37 µM) in the experiment with Escherichia coli; 3.12 µg/mL (≈ 5.37 µM) in the experiment with Pseudomonas aeruginosa; 6.25 µg/mL (≈ 10.7 µM) with Bacillus subtilis; 1.56 µg/mL (≈ 2.69 µM) in experiment [1].
As for `Cc1nn(-c2ccc(-c3nnc(S)o3)cc2)c(=O)n1/N=C/c1ccccc1F`, the MIC was 37.5 µg/mL (≈ 94.6 µM) in the experiment on Staphylococcus aureus; 75 µg/mL (≈ 189 µM) in the experiment on Escherichia coli; 75 µg/mL (≈ 189 µM) in the experiment on Pseudomonas aeruginosa; 75 µg/mL (≈ 189 µM) in the experiment on Saccharomyces cerevisiae; 75 µg/mL (≈ 189 µM) in the experiment with Bacillus subtilis; 150 µg/mL (≈ 378 µM) in experiment [1]. Besides, the MIC came out at 37.5 µg/mL (≈ 94.6 µM) with Aspergillus flavus, 9.37 µg/mL (≈ 23.6 µM) with Rhizopus arrhizus, 75 µg/mL (≈ 189 µM) with Aspergillus niger and 150 µg/mL (≈ 378 µM) with Candida albicans.
As for `CCOC(=O)CSc1nnc(-c2ccc(-n3nc(C)n(N)c3=O)cc2)o1`, the MIC in the experiment on Staphylococcus aureus stood at 18.8 µg/mL (≈ 49.8 µM); with Escherichia coli, 37.5 µg/mL (≈ 99.6 µM); in the experiment on Pseudomonas aeruginosa, 75 µg/mL (≈ 199 µM); with Saccharomyces cerevisiae it was 150 µg/mL (≈ 399 µM); in the experiment with Bacillus subtilis, 37.5 µg/mL (≈ 99.6 µM); in [1], 75 µg/mL (≈ 199 µM). For the same compound, the MIC with Aspergillus flavus, in the experiment on Rhizopus arrhizus, with Aspergillus niger and in the experiment on Candida albicans was 150 µg/mL (≈ 399 µM) throughout.
With `Cc1nn(-c2ccc(-c3nnc(S)o3)cc2)c(=O)n1/N=C/c1ccc(F)cc1`, the MIC with Staphylococcus aureus was found to be 150 µg/mL (≈ 378 µM); with Escherichia coli, 37.5 µg/mL (≈ 94.6 µM); in the experiment with Pseudomonas aeruginosa, 75 µg/mL (≈ 189 µM); in the experiment with Saccharomyces cerevisiae, 150 µg/mL (≈ 378 µM); in the experiment on Bacillus subtilis, 75 µg/mL (≈ 189 µM); in experiment [1] it was 150 µg/mL (≈ 378 µM). The minimum inhibitory concentration (MIC) in the experiment with Aspergillus flavus stood at 75 µg/mL (≈ 189 µM); in the experiment with Rhizopus arrhizus, 75 µg/mL (≈ 189 µM); in the experiment with Aspergillus niger, 75 µg/mL (≈ 189 µM); in the experiment on Candida albicans it was 150 µg/mL (≈ 378 µM).
With `Cc1nn(-c2ccc(-c3nnc(S)o3)cc2)c(=O)n1/N=C/c1cscn1`, the MIC with Staphylococcus aureus turned out to be 75 µg/mL (≈ 195 µM); in the experiment on Escherichia coli, 37.5 µg/mL (≈ 97.3 µM); in the experiment on Pseudomonas aeruginosa it was 150 µg/mL (≈ 389 µM); in the experiment on Saccharomyces cerevisiae, 150 µg/mL (≈ 389 µM); in the experiment on Bacillus subtilis, 37.5 µg/mL (≈ 97.3 µM); in experiment [1] it was 18.8 µg/mL (≈ 48.6 µM). In addition, the MIC came out at 150 µg/mL (≈ 389 µM) with Aspergillus flavus, 37.5 µg/mL (≈ 97.3 µM) in the experiment with Rhizopus arrhizus, 150 µg/mL (≈ 389 µM) with Aspergillus niger and 150 µg/mL (≈ 389 µM) with Candida albicans.
With `CSc1nnc(-c2ccc(-n3nc(C)n(N)c3=O)cc2)o1`, the minimal inhibitory concentration (MIC) in the experiment on Staphylococcus aureus was determined as 37.5 µg/mL (≈ 123 µM); with Escherichia coli it was 75 µg/mL (≈ 246 µM); in the experiment on Pseudomonas aeruginosa, 75 µg/mL (≈ 246 µM); in the experiment with Saccharomyces cerevisiae, 150 µg/mL (≈ 493 µM); in the experiment on Bacillus subtilis, 150 µg/mL (≈ 493 µM); in experiment [1], 75 µg/mL (≈ 246 µM). Also, the MIC was 150 µg/mL (≈ 493 µM) with Aspergillus flavus, 37.5 µg/mL (≈ 123 µM) in the experiment on Rhizopus arrhizus, 150 µg/mL (≈ 493 µM) in the experiment on Aspergillus niger and 150 µg/mL (≈ 493 µM) with Candida albicans.
As for `Cc1nn(-c2ccc(-c3nnc(S)o3)cc2)c(=O)n1N`, the MIC in the experiment on Staphylococcus aureus was 75 µg/mL (≈ 258 µM); with Escherichia coli, 75 µg/mL (≈ 258 µM); in the experiment on Pseudomonas aeruginosa, 37.5 µg/mL (≈ 129 µM); in the experiment on Saccharomyces cerevisiae it was 150 µg/mL (≈ 517 µM); in the experiment on Bacillus subtilis, 37.5 µg/mL (≈ 129 µM); in experiment [1] it was 150 µg/mL (≈ 517 µM). For the same compound, the MIC was 150 µg/mL (≈ 517 µM) in the experiment with Aspergillus flavus, 75 µg/mL (≈ 258 µM) in the experiment with Rhizopus arrhizus, 150 µg/mL (≈ 517 µM) with Aspergillus niger and 37.5 µg/mL (≈ 129 µM) in the experiment on Candida albicans.
With `Cc1nn(-c2ccc(-c3nnc(S)o3)cc2)c(=O)n1/N=C/c1ccco1`, the MIC with Staphylococcus aureus amounted to 37.5 µg/mL (≈ 102 µM); in the experiment with Escherichia coli, 150 µg/mL (≈ 407 µM); in the experiment with Pseudomonas aeruginosa, 37.5 µg/mL (≈ 102 µM); in the experiment on Saccharomyces cerevisiae it was 150 µg/mL (≈ 407 µM); in the experiment with Bacillus subtilis, 150 µg/mL (≈ 407 µM); in experiment [1], 75 µg/mL (≈ 204 µM). Further, the MIC with Aspergillus flavus, with Rhizopus arrhizus, in the experiment on Aspergillus niger and in the experiment with Candida albicans was 150 µg/mL (≈ 407 µM) each time.
As for `Cc1nn(-c2ccc(-c3nnc(S)o3)cc2)c(=O)n1/N=C/c1ccccc1Br`, the MIC was determined as 75 µg/mL (≈ 164 µM) in the experiment on Staphylococcus aureus; 150 µg/mL (≈ 328 µM) with Escherichia coli; 150 µg/mL (≈ 328 µM) in the experiment on Pseudomonas aeruginosa; 150 µg/mL (≈ 328 µM) in the experiment with Saccharomyces cerevisiae; 75 µg/mL (≈ 164 µM) in the experiment on Bacillus subtilis; 75 µg/mL (≈ 164 µM) in [1]. Also, the MIC was 75 µg/mL (≈ 164 µM) with Aspergillus flavus, 37.5 µg/mL (≈ 82 µM) in the experiment with Rhizopus arrhizus, 150 µg/mL (≈ 328 µM) in the experiment with Aspergillus niger and 150 µg/mL (≈ 328 µM) in the experiment on Candida albicans.
For the compound `Cc1nn(-c2ccc(-c3nnc(S)o3)cc2)c(=O)n1/N=C/c1cc(F)ccc1F`, the MIC with Staphylococcus aureus worked out at 75 µg/mL (≈ 181 µM); in the experiment with Escherichia coli, 150 µg/mL (≈ 362 µM); in the experiment with Pseudomonas aeruginosa, 75 µg/mL (≈ 181 µM); in the experiment on Saccharomyces cerevisiae, 150 µg/mL (≈ 362 µM); with Bacillus subtilis, 37.5 µg/mL (≈ 90.5 µM); in [1], 18.8 µg/mL (≈ 45.2 µM). Further, the MIC turned out to be 9.37 µg/mL (≈ 22.6 µM) in the experiment with Aspergillus flavus, 18.8 µg/mL (≈ 45.2 µM) in the experiment with Rhizopus arrhizus, 37.5 µg/mL (≈ 90.5 µM) in the experiment on Aspergillus niger and 18.8 µg/mL (≈ 45.2 µM) in the experiment on Candida albicans.
As to `C[C@@H]1[C@H](O)[C@@H](C)/C=C/C=C/C=C/C=C/C=C/C=C/C=C/[C@H](O[C@@H]2O[C@H](C)[C@@H](O)[C@H](N)[C@@H]2O)C[C@@H]2O[C@](O)(C[C@@H](O)C[C@@H](O)[C@H](O)CC[C@@H](O)C[C@@H](O)CC(=O)O[C@H]1C)C[C@H](O)[C@H]2C(=O)O` [AMPHOTERICIN B], the MIC in the experiment on Saccharomyces cerevisiae came to 6.25 µg/mL (≈ 6.76 µM); in the experiment on Aspergillus flavus, 6.25 µg/mL (≈ 6.76 µM); in the experiment on Rhizopus arrhizus, 1.56 µg/mL (≈ 1.69 µM); in the experiment on Aspergillus niger it was 1.56 µg/mL (≈ 1.69 µM); with Candida albicans, 6.25 µg/mL (≈ 6.76 µM).
Take `CC1(C)S[C@@H]2[C@H](NC(=O)Cc3ccccc3)C(=O)N2[C@H]1C(=O)O` [PENICILLIN G]: the MIC in the experiment with Staphylococcus aureus came to 6.25 µg/mL (≈ 18.7 µM); in the experiment with Escherichia coli, 6.25 µg/mL (≈ 18.7 µM); in the experiment on Pseudomonas aeruginosa, 9.37 µg/mL (≈ 28 µM); in the experiment on Bacillus subtilis it was 1.53 µg/mL (≈ 4.56 µM); in experiment [1], 3.12 µg/mL (≈ 9.35 µM).
